Laboratory results reported in patent US20240150377A1, “MODULATORS OF CYSTIC FIBROSIS TRANSMEMBRANE CONDUCTANCE REGULATOR” (VERTEX PHARMACEUTICALS INCORPORATED, priority 2020, published 2024).
pEC50: −log10 of the molar value. Like-named read-outs stand apart in the source and are kept apart here. One block for each compound: values may come before it.

Target: T1, CFTR (Homo sapiens, UniProt P13569, DEL508-508)
T1 construct: endogenous in cells; host or cells: primary human bronchial epithelial cells from CF subjects (F508del/MF-HBE), differentiated at air-liquid interface
T1 sequence (P13569 with tags, fused parts or gaps DEL508-508): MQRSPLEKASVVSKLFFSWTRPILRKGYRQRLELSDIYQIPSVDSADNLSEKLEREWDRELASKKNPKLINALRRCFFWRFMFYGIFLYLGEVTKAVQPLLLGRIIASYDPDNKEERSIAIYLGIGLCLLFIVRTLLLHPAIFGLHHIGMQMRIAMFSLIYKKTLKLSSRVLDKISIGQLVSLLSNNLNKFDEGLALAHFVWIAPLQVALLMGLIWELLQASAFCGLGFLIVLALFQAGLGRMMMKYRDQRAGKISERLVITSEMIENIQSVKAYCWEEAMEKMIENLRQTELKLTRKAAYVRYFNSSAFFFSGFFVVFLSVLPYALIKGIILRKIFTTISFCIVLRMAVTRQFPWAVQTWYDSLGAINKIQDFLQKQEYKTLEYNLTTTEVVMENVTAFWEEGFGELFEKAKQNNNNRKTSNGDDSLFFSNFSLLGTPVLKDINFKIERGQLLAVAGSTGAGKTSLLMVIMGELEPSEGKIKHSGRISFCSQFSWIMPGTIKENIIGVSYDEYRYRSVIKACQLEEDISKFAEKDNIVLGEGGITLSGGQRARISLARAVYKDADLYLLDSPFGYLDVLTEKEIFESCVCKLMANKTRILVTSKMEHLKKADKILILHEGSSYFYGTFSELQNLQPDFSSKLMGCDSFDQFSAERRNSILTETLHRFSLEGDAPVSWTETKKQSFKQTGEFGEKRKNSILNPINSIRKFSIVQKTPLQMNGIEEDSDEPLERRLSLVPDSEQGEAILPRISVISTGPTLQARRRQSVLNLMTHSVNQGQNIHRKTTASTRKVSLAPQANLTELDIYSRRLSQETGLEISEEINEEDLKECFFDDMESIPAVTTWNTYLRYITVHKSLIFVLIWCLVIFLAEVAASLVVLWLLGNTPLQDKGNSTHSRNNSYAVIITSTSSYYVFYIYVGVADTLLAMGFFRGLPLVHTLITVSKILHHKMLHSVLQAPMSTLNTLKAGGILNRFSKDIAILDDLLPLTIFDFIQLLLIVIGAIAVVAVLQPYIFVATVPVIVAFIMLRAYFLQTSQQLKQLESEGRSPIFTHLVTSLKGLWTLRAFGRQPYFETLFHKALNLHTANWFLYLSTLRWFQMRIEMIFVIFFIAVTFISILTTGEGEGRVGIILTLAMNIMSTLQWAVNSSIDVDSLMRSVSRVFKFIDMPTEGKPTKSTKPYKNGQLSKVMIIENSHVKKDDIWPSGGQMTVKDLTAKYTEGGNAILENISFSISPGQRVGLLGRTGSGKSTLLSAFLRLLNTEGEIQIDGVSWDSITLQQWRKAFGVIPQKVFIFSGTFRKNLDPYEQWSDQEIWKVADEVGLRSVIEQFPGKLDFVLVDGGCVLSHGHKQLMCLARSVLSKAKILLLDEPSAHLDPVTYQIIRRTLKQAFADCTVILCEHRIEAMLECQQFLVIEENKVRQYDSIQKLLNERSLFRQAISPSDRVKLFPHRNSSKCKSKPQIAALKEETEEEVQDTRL
Test: HBE assay: Ussing chamber assay of CFTR-mediated short-circuit currents
Type: cell-based
Settings: for pEC50: read-out: HBE EC50
Method in brief: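 CFTR-mediated Isc (μA/cm²) equals the peak response to apical 20 μM forskolin minus the residual after a 20 μM each BPO/GlyH-101/CFTR inhibitor 172 cocktail, recorded in Ussing chambers at Vhold 0 mV, 37 °C, pH 7.4, with 30 μM apical amiloride. Cells were F508del/MF HBE cultures preincubated 18-24 h with corrector (concentration range or 10 μM) plus 1 μM ivacaftor in 20% human serum.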

[1] = HBE assay, 10 μM, read-out: HBE Activity at 10 μM (%)
[2] = Table 12, read-out: HBE Max Activity (%)
[3] = HBE assay, read-out: HBE Max activity (%)
[4] = Table 10, read-out: HBE Max activity (%)
[5] = Table 11, read-out: HBE Max Activity (%)
[6] = Table 10, at 10 μM, read-out: HBE activity at 10 (μM) (%)
[7] = Table 13, at 10 μM, read-out: HBE Activity at 10 μM (%)
[8] = Table 11, at 10 μM, read-out: HBE Activity at 10 μM (%)
[9] = Table 13, read-out: HBE Max Activity (%)

SMILES: COC[C@]1(C)CCCN1c1cccc(CN2C(=O)c3cccc(c3)S(=O)(=O)Nc3nc(cc(-c4c(C)cccc4C)n3)OC[C@H]2CC(C)(C)C)n1 [Compound 1511]
activation at 10 µM [1]: > 60%

SMILES: Cc1cccc(C)c1-c1cc2nc(n1)NS(=O)(=O)c1cccc(c1)C(=O)N(Cc1ccnc(CC(C)C)n1)[C@H](CC(C)(C)C)CO2 [Compound 594]
pEC50 (Table 12): > 6.00 | Emax [2]: > 60%

SMILES: Cc1cccc(C)c1-c1cc2nc(n1)NS(=O)(=O)c1cccc(c1)C(=O)N(Cc1ncc(O[C@H](C)C(C)C)cn1)[C@H](CC(C)C)CO2 [Compound 1434]
pEC50 (HBE assay): 5.52 to 6.00 | Emax [3]: > 60%

SMILES: COCCN(C)c1nccc(CN2C(=O)c3cccc(c3)S(=O)(=O)Nc3nc(cc(-c4c(C)cccc4C)n3)OC[C@H]2CC(C)(C)C)n1 [Compound 600]
pEC50 (Table 11): > 6.00 | Emax [5]: > 60%

SMILES: Cc1cccc(C)c1-c1cc2nc(n1)NS(=O)(=O)c1cccc(c1)C(=O)N(CC1CCC(NCC(=O)O)CC1)[C@H](CC(C)(C)C)CO2 (stereo partly drawn) [Compound 912]
activation at 10 µM [6]: < 300%

SMILES: CCCOc1cnc(CN2C(=O)c3cccc(c3)S(=O)(=O)Nc3nc(cc(-c4c(C)cccc4C)n3)OC[C@H]2CC(C)(C)C)nc1 [Compound 1521]
activation at 10 µM [1]: > 60%

SMILES: Cc1cccc(C)c1-c1cc2nc(n1)NS(=O)(=O)c1cccc(c1)C(=O)N(Cc1cc(NC(C)C)ccn1)[C@H](CC(C)(C)C)CO2 [Compound 995]
activation at 10 µM [7]: > 600%

SMILES: Cc1cccc(C)c1-c1cc2nc(n1)NS(=O)(=O)c1cccc(c1)C(=O)N(Cc1ccnc(N(C)C(C)C)n1)[C@H](CC(C)(C)C)CO2 [Compound 628]
pEC50 (Table 11): > 6.00 | Emax [5]: > 60%

SMILES: COC[C@H]1CC[C@@H](C)N1c1cncc(CN2C(=O)c3cccc(c3)S(=O)(=O)Nc3nc(cc(-c4c(C)cccc4C)n3)OC[C@H]2CC(C)(C)C)n1 [Compound 1450]
pEC50 (HBE assay): > 6.00 | Emax [3]: > 60%

SMILES: Cc1cccc(C)c1-c1cc2nc(n1)NS(=O)(=O)c1cccc(c1)C(=O)N(Cc1ncc(N3CC4CCC3C4)cn1)[C@H](CC(C)(C)C)CO2 (stereo partly drawn) [Compound 874]
pEC50 (Table 12): > 6.00 | Emax [2]: > 60%

SMILES: Cc1cccc(C)c1-c1cc2nc(n1)NS(=O)(=O)c1cccc(c1)C(=O)N(Cc1ncc(N3CCC(F)(F)C3)cn1)[C@H](CC1CC1)CO2 [Compound 1469]
pEC50 (HBE assay): > 6.00 | Emax [3]: > 60%

SMILES: Cc1cccc(C)c1-c1cc2nc(n1)NS(=O)(=O)c1cccc(c1)C1Oc3ccc4cccnc4c3CN1[C@H](CC(C)(C)C)CO2 (stereo partly drawn) [Compound 751]
activation at 10 µM [6]: > 60%

SMILES: CO[C@H](C)[C@@H]1CCCN1c1cncc(CN2C(=O)c3cccc(c3)S(=O)(=O)Nc3nc(cc(-c4c(C)cccc4C)n3)OC[C@H]2CC(C)(C)C)n1 [Compound 1451]
pEC50 (HBE assay): > 6.00 | Emax [3]: > 60%

SMILES: Cc1cccc(C)c1-c1cc2nc(n1)NS(=O)(=O)c1cccc(c1)C(=O)N(CC1CCC(C)(C)OC1)[C@H](CC(C)(C)C)CO2 (single isomer, unassigned) [Compound 31]
activation at 10 µM [8]: > 60%

SMILES: Cc1cccc(C)c1-c1cc2nc(n1)NS(=O)(=O)c1cccc(c1)C(=O)N(Cc1c(C)n[nH]c1C)[C@H](CC(C)(C)C)CO2 [Compound 485]
activation at 10 µM [6]: > 60%

SMILES: Cc1cccc(C)c1-c1cc2nc(n1)NS(=O)(=O)c1cccc(c1)C(=O)N(CC(=O)N(C)CC1CCOCC1)[C@H](CC(C)(C)C)CO2 [Compound 223]
activation at 10 µM [7]: > 600%

SMILES: Cc1cccc(C)c1-c1cc2nc(n1)NS(=O)(=O)c1cccc(c1)C(=O)N(Cc1ncc(C3CC(C)(C)C3)cn1)[C@H](CC(C)(C)C)CO2 [Compound 158]
pEC50 (Table 13): > 6.00 | Emax [9]: > 60%

SMILES: Cc1cccc(C)c1-c1cc2nc(n1)NS(=O)(=O)c1cccc(c1)C(=O)N(Cc1ncc(OCC3(C)COC3)cn1)[C@H](CC(C)(C)C)CO2 [Compound 1360]
pEC50 (HBE assay): > 6.00 | Emax [3]: > 60%

SMILES: Cc1cccc(C)c1-c1cc2nc(n1)NS(=O)(=O)c1cccc(c1)C(=O)N(CC1CCOC(C)(C)C1)[C@H](CC(C)(C)C)CO2 (single isomer, unassigned) [Compound 28]
activation at 10 µM [8]: > 60%

SMILES: Cc1cccc(C)c1-c1cc2nc(n1)NS(=O)(=O)c1cccc(c1)C(=O)N(Cc1cccc(N(CC3CC3)C(C)C)n1)[C@H](CC(C)(C)C)CO2 [Compound 235]
pEC50 (Table 13): > 6.00 | Emax [9]: > 60%

SMILES: Cc1cccc(C)c1-c1cc2nc(n1)NS(=O)(=O)c1cccc(c1)C(=O)N(Cc1cccc(N3CCC[C@@H]3CC(C)C)n1)[C@H](CC(C)(C)C)CO2 [Compound 1428]
pEC50 (HBE assay): > 6.00 | Emax [3]: > 60%

SMILES: Cc1cccc(C)c1-c1cc2nc(n1)NS(=O)(=O)c1cccc(c1)C(=O)N(Cc1ncc(OC(F)(F)F)cn1)[C@H](CC(C)(C)C)CO2 [Compound 1425]
pEC50 (HBE assay): > 6.00 | Emax [3]: > 60%

SMILES: Cc1cccc(C)c1-c1cc2nc(n1)NS(=O)(=O)c1cccc(c1)C(=O)N(CC1CC(C)(C)CO1)[C@H](CC(C)(C)C)CO2 (stereo partly drawn) [Compound 21, (11R)-12-[(4,4-Dimethyloxolan-2-yl)methyl]-6-(2,6-dimethylphenyl)-11-(2,2-dimethylpropyl)-9-oxa-2λ^6-thia-3,5,12,19-tetraazatricyclo[12.3.1.14,8]nonadeca-1(17),4(19),5,7,14(18),15-hexaene-2,2,13-trione]
activation at 10 µM [8]: > 60%

SMILES: Cc1cccc(C)c1-c1cc2nc(n1)NS(=O)(=O)c1cccc(c1)C(=O)N(Cc1ncc(N3CCC(C)(C)CC3)cn1)[C@H](CC1CC1)CO2 [Compound 462]
pEC50 (Table 12): > 6.00 | Emax [2]: > 60%

SMILES: CC[C@@H](C)Oc1cnc(CN2C(=O)c3cccc(c3)S(=O)(=O)Nc3nc(cc(-c4c(C)cccc4C)n3)OC[C@H]2CC(C)(C)C)nc1 [Compound 1375]
pEC50 (HBE assay): > 6.00 | Emax [3]: > 60%

More lines, now with the values ahead:

pEC50 (Table 10): > 6.00 | Emax [4]: > 60%
SMILES: Cc1cccc(C)c1-c1cc2nc(n1)NS(=O)(=O)c1cccc(c1)C(=O)N(Cc1ccc(Cc3nccs3)cc1)[C@H](CC(C)(C)C)CO2 [Compound 296]

activation at 10 µM [8]: > 60% | pEC50 (Table 11): > 6.00 | Emax [5]: > 60%
SMILES: Cc1cccc(C)c1-c1cc2nc(n1)NS(=O)(=O)c1cccc(c1)C(=O)N(Cc1cccc(C3CCCC3)n1)[C@H](CC(C)(C)C)CO2 [Compound 598]

pEC50 (Table 13): > 6.00 | Emax [9]: > 60%
SMILES: Cc1cccc(C)c1-c1cc2nc(n1)NS(=O)(=O)c1cccc(c1)C(=O)N(Cc1ccc(C3CC(C)(C)C3)cn1)[C@H](CC(C)(C)C)CO2 [Compound 159]

pEC50 (HBE assay): > 6.00
SMILES: Cc1cccc(C)c1-c1cc2nc(n1)NS(=O)(=O)c1cccc(c1)C(=O)N(Cc1ncc(N3CC[C@H]3C)cn1)[C@H](CC(C)(C)C)CO2 (stereo in doubt) [Compound 1406]

pEC50 (Table 11): > 6.00 | Emax [5]: > 60%
SMILES: Cc1cccc(C)c1-c1cc2nc(n1)NS(=O)(=O)c1cccc(c1)C(=O)N(Cc1nccc(N3CCC[C@H]3C)n1)[C@H](CC(C)(C)C)CO2 [Compound 618]

pEC50 (Table 11): > 6.00 | Emax [5]: > 60%
SMILES: Cc1cccc(C)c1-c1cc2nc(n1)NS(=O)(=O)c1cccc(c1)C(=O)N(Cc1nccc(N3CCC(C)(C)C3)n1)[C@H](CC(C)(C)C)CO2 [Compound 648]

pEC50 (Table 10): > 6.00 | Emax [4]: > 60%
SMILES: Cc1cccc(C)c1-c1cc2nc(n1)NS(=O)(=O)c1cccc(c1)C(=O)N(Cc1ccc(N3CCOCC3)cc1)[C@H](CC(C)(C)C)CO2 [Compound 498]

pEC50 (Table 11): > 6.00 | Emax [5]: > 60%
SMILES: Cc1cccc(C)c1-c1cc2nc(n1)NS(=O)(=O)c1cccc(c1)C(=O)N(Cc1cncc(N3CCOCC3)n1)[C@H](CC(C)(C)C)CO2 [Compound 896]

pEC50 (Table 12): > 6.00 | Emax [2]: > 60%
SMILES: Cc1cccc(C)c1-c1cc2nc(n1)NS(=O)(=O)c1cccc(c1)C(=O)N(Cc1ccc(C3CC(C)(C)CCO3)cn1)[C@H](CC(C)(C)C)CO2 (stereo partly drawn) [Compound 706]

pEC50 (Table 12): > 6.00 | Emax [2]: > 60%
SMILES: Cc1cccc(C)c1-c1cc2nc(n1)NS(=O)(=O)c1cccc(c1)C(=O)N(Cc1ccc(C3CCOC3)cn1)[C@H](CC(C)(C)C)CO2 (stereo partly drawn) [Compound 261]

pEC50 (Table 12): > 6.00 | Emax [2]: > 60%
SMILES: C=C(C)c1nccc(CN2C(=O)c3cccc(c3)S(=O)(=O)Nc3nc(cc(-c4c(C)cccc4C)n3)OC[C@H]2CC(C)(C)C)n1 [Compound 593]

pEC50 (Table 13): > 6.00 | Emax [9]: > 60%
SMILES: Cc1cccc(C)c1-c1cc2nc(n1)NS(=O)(=O)c1cccc(c1)C(=O)N(Cc1ncc(N3CCOC4(CCC4)C3)cn1)[C@H](CC(C)(C)C)CO2 [Compound 1146]

pEC50 (Table 11): 5.52 to 6.00 | Emax [5]: > 60%
SMILES: COC1CCN(c2cnc(CN3C(=O)c4cccc(c4)S(=O)(=O)Nc4nc(cc(-c5c(C)cccc5C)n4)OC[C@H]3CC(C)(C)C)nc2)C1 (stereo partly drawn) [Compound 599]

pEC50 (Table 12): > 6.00 | Emax [2]: > 60%
SMILES: Cc1cccc(C)c1-c1cc2nc(n1)NS(=O)(=O)c1cccc(c1)C(=O)N(Cc1ncc(N3CC4(CCC4)C3)cn1)[C@H](CC(C)(C)C)CO2 [Compound 155, (11R)-12-[[5-(2-Azaspiro[3.3]heptan-2-yl)pyrimidin-2-yl]methyl]-6-(2,6-dimethylphenyl)-11-(2,2-dimethylpropyl)-2,2-dioxo-9-oxa-2λ^6-thia-3,5,12,19-tetrazatricyclo[12.3.1.14,8]nonadeca-1(18),4(19),5,7,14,16-hexaen-13-one]

pEC50 (HBE assay): > 6.00 | Emax [3]: > 60%
SMILES: Cc1cccc(C)c1-c1cc2nc(n1)NS(=O)(=O)c1cccc(c1)C(=O)N(Cc1cncc(NC3CCOCC3)n1)[C@H](CC(C)(C)C)CO2 [Compound 1420]

HBE Max activity (%) (Table 11): + (+ is <30%) | activation at 10 µM [8]: > 60%
SMILES: Cc1cccc(C)c1-c1cc2nc(n1)NS(=O)(=O)c1cccc(c1)C(=O)N(Cc1nccc(N3CCC(C)(C)CC3)n1)[C@H](CC(C)(C)C)CO2 [Compound 620]
